Values after ≈ are worked out from the molar mass of the structure shown. Each block holds one compound with its values, some of them ahead of it. Active and inactive are the calls of the source. The calls are words filed in the database; no cut-off is given here.
Key:
Staphylococcus aureus [1] = experiment: Antibacterial activity against methicilin-resistant Staphylococcus aureus isolate 15-2 assessed as inhibition of visible growth of bacteria incubated for 24 hrs by CLSI protocol based broth-dilution method; assay type: functional
Staphylococcus aureus [2] = experiment: Antibacterial activity against Staphylococcus aureus USA 300 assessed as inhibition of visible growth of bacteria incubated for 24 hrs by CLSI protocol based broth-dilution method; assay type: functional
Streptococcus pneumoniae [3] = experiment: Antibacterial activity against penicillin resistant Streptococcus pneumoniae isolate 20-1 assessed as inhibition of visible growth of bacteria incubated for 24 hrs by CLSI protocol based broth-dilution method; assay type: functional
Enterococcus faecium [4] = experiment: Antibacterial activity against pleuromutilin-resistant Enterococcus faecium 18SC29-2 harboring (lsa(E)-) genotype assessed as inhibition of visible growth of bacteria incubated for 24 hrs by CLSI protocol based broth-dilution method; assay type: functional
[5] = Stability in rat liver microsomes assessed as drug metabolism at 1 uM measured within 1 hrs in presence of NADPH by LC-MS analysis; assay type: ADME, Microsome; conditions: read-out: Drug metabolism
Staphylococcus aureus [6] = experiment: Antibacterial activity against Staphylococcus aureus ATCC 43300 assessed as inhibition of visible growth of bacteria incubated for 24 hrs by CLSI protocol based broth-dilution method; assay type: functional
[7] = tested on: Staphylococcus epidermidis; experiment: Antibacterial activity against Staphylococcus epidermidis ATCC 12228 assessed as inhibition of visible growth of bacteria incubated for 24 hrs by CLSI protocol based broth-dilution method; assay type: functional
Staphylococcus aureus [8] = experiment: Antibacterial activity against methicillin-resistant Staphylococcus aureus J1 harboring (lsa(E)+) genotype assessed as inhibition of visible growth of bacteria incubated for 24 hrs by CLSI protocol based broth-dilution method; assay type: functional
Streptococcus pneumoniae [9] = experiment: Antibacterial activity against penicillin sensitive Streptococcus pneumoniae isolate 20-1 assessed as inhibition of visible growth of bacteria incubated for 24 hrs by CLSI protocol based broth-dilution method; assay type: functional
Staphylococcus aureus [10] = experiment: Antibacterial activity against methicillin-resistant Staphylococcus aureus USA 300 assessed as number of colonies with prevalence of spontaneous mutation at 8 times of MIC incubated for 48 hrs by agar dilution assay; assay type: functional
Staphylococcus aureus [11] = experiment: Bactericidal activity against methicillin-resistant Staphylococcus aureus USA 300 assessed as inhibition of bacterial growth at 8 times of MIC by time kill kinetics assay; assay type: functional, organism-based; conditions: time <= 24.0 hrs, TDE = time-dependent effect
[12] = Stability in human liver microsomes assessed as drug metabolism at 1 uM measured within 1 hrs in presence of NADPH by LC-MS analysis; assay type: ADME, Microsome; conditions: read-out: Drug metabolism
Staphylococcus aureus [13] = experiment: Antibacterial activity against methicillin-resistant Staphylococcus aureus USA 300 assessed as inhibition of bacterial growth at 1 times of MIC measured upto 24 hrs by time-kill kinetics assay; assay type: functional, organism-based
Staphylococcus aureus [14] = experiment: Antibacterial activity against Staphylococcus aureus ATCC 33591 assessed as inhibition of visible growth of bacteria incubated for 24 hrs by CLSI protocol based broth-dilution method; assay type: functional
Staphylococcus simulans = experiment: Antibacterial activity against pleuromutilin-resistant Staphylococcus simulans isolate 55-1 harboring cfr+ genotype assessed as inhibition of visible growth of bacteria incubated for 24 hrs by CLSI protocol based broth-dilution method; assay type: functional
[15] = Stability in mouse liver microsomes assessed as drug metabolism at 1 uM measured within 1 hrs in presence of NADPH by LC-MS analysis; assay type: ADME, Microsome; conditions: read-out: Drug metabolism
Staphylococcus aureus [16] = experiment: Antibacterial activity against Staphylococcus aureus ATCC 25923 assessed as inhibition of visible growth of bacteria incubated for 24 hrs by CLSI protocol based broth-dilution method; assay type: functional
Staphylococcus aureus [17] = experiment: Antibacterial activity against methicillin-resistant Staphylococcus aureus USA 300 assessed as number of colonies with prevalence of spontaneous mutation at 4 times of MIC incubated for 48 hrs by agar dilution assay; assay type: functional
Enterococcus faecium [18] = experiment: Antibacterial activity against pleuromutilin-resistant Enterococcus faecium 18FJZ1-1 harboring (lsa(E)+) genotype assessed as inhibition of visible growth of bacteria incubated for 24 hrs by CLSI protocol based broth-dilution method; assay type: functional
Staphylococcus aureus [19] = experiment: Antibacterial activity against Staphylococcus aureus ATCC 29213 assessed as inhibition of visible growth of bacteria incubated for 24 hrs by CLSI protocol based broth-dilution method; assay type: functional
Enterococcus faecalis [20] = experiment: Antibacterial activity against Enterococcus faecalis HB 24-4 assessed as inhibition of visible growth of bacteria incubated for 24 hrs by CLSI protocol based broth-dilution method; assay type: functional
Escherichia coli = experiment: Antibacterial activity against Escherichia coli ATCC 25922 assessed as inhibition of visible growth of bacteria incubated for 24 hrs by CLSI protocol based broth-dilution method; assay type: functional
Staphylococcus aureus [21] = experiment: Antibacterial activity against Staphylococcus aureus ATCC 700699 assessed as inhibition of visible growth of bacteria incubated for 24 hrs by CLSI protocol based broth-dilution method; assay type: functional
Enterococcus faecalis [22] = experiment: Antibacterial activity against Enterococcus faecalis ATCC 29212 assessed as inhibition of visible growth of bacteria incubated for 24 hrs by CLSI protocol based broth-dilution method; assay type: functional
Staphylococcus aureus [23] = experiment: Antibacterial activity against Staphylococcus aureus ATCC 700788 assessed as inhibition of visible growth of bacteria incubated for 24 hrs by CLSI protocol based broth-dilution method; assay type: functional
Acinetobacter baumannii = experiment: Antibacterial activity against Acinetobacter baumannii ATCC 19606 assessed as inhibition of visible growth of bacteria incubated for 24 hrs by CLSI protocol based broth-dilution method; assay type: functional
[24] = tested on: Staphylococcus epidermidis; experiment: Antibacterial activity against methicillin-sensitive Staphylococcus epidermidis isolate 20-15 assessed as inhibition of visible growth of bacteria incubated for 24 hrs by CLSI protocol based broth-dilution method; assay type: functional

SMILES: C=C[C@]1(C)C[C@@H](OC(=O)CSc2cccc(NC(=O)c3ccc(B(O)O)cc3)c2)[C@]2(C)[C@H](C)CC[C@]3(CCC(=O)[C@H]32)[C@@H](C)[C@@H]1O
- MIC (Staphylococcus aureus [1]): ≤ 0.03 µg/mL
- MIC (Staphylococcus aureus [2]): ≤ 0.03 µg/mL
- MIC (Streptococcus pneumoniae [3]): 0.06 µg/mL (≈ 0.0947 µM)
- MIC (Enterococcus faecium [4]): ≤ 0.03 µg/mL
- metabolised at 1 h, 1 µM [5]: 84.6%
- MIC (Staphylococcus aureus [6]): ≤ 0.03 µg/mL
- MIC [7]: 0.016 µg/mL (≈ 0.0253 µM)
- MIC (Staphylococcus aureus [8]): 2 µg/mL (≈ 3.16 µM)
- MIC (Streptococcus pneumoniae [9]): ≤ 0.03 µg/mL
- Activity (Staphylococcus aureus [10]): <4.7 10^-11No_unit
- Activity (Staphylococcus aureus [11]): Tde
- metabolised at 1 h, 1 µM [12]: 78.8%
- Activity (Staphylococcus aureus [13]): Active
- MIC (Staphylococcus aureus [14]): ≤ 0.03 µg/mL
- MIC (Staphylococcus simulans): 1 µg/mL (≈ 1.58 µM)
- metabolised at 1 h, 1 µM [15]: 87.5%
- MIC (Staphylococcus aureus [16]): ≤ 0.03 µg/mL
- Activity (Staphylococcus aureus [17]): <4.7 10^-11No_unit
- MIC (Enterococcus faecium [18]): 0.5 µg/mL (≈ 0.789 µM)
- MIC (Staphylococcus aureus [19]): ≤ 0.016 µg/mL
- MIC (Enterococcus faecalis [20]): 0.25 µg/mL (≈ 0.395 µM)
- MIC (Escherichia coli): 64 µg/mL (≈ 101 µM)
- MIC (Staphylococcus aureus [21]): ≤ 0.03 µg/mL
- MIC (Enterococcus faecalis [22]): 0.25 µg/mL (≈ 0.395 µM)
- MIC (Staphylococcus aureus [23]): ≤ 0.03 µg/mL
- MIC (Acinetobacter baumannii): > 64 µg/mL
- MIC [24]: ≤ 0.03 µg/mL

SMILES: C=C[C@]1(C)C[C@@H](OC(=O)CS[C@@H]2C[C@H]3CC[C@@H](C2)N3C)[C@]2(C)[C@H](C)CC[C@]3(CCC(=O)[C@H]32)[C@@H](C)[C@@H]1O [RETAPAMULIN]
- MIC (Enterococcus faecium [4]): 0.125 µg/mL (≈ 0.241 µM)
- MIC (Staphylococcus aureus [8]): > 32 µg/mL
- MIC (Staphylococcus simulans): 32 µg/mL (≈ 61.8 µM)
- MIC (Enterococcus faecium [18]): 32 µg/mL (≈ 61.8 µM)

SMILES: C=C[C@]1(C)C[C@@H](OC(=O)CSC(C)(C)CNC(=O)c2ccc3c(c2)B(O)OC3)[C@]2(C)[C@H](C)CC[C@]3(CCC(=O)[C@H]32)[C@@H](C)[C@@H]1O
- MIC (Enterococcus faecium [4]): 0.125 µg/mL (≈ 0.2 µM)
- MIC [7]: 0.063 µg/mL (≈ 0.101 µM)
- MIC (Staphylococcus aureus [8]): 16 µg/mL (≈ 25.6 µM)
- MIC (Staphylococcus simulans): 2 µg/mL (≈ 3.2 µM)
- MIC (Enterococcus faecium [18]): 8 µg/mL (≈ 12.8 µM)
- MIC (Staphylococcus aureus [19]): 0.063 µg/mL (≈ 0.101 µM)

- MIC [7]: 4 µg/mL (≈ 5.99 µM)
- MIC (Staphylococcus aureus [19]): 0.063 µg/mL (≈ 0.0944 µM)
SMILES: C=C[C@]1(C)C[C@@H](OC(=O)CS[C@@H]2CC[C@@H](NC(=O)c3ccc4c(c3)B(O)OC4)C[C@H]2O)[C@]2(C)[C@H](C)CC[C@]3(CCC(=O)[C@H]32)[C@@H](C)[C@@H]1O

Source: ChEMBL document CHEMBL5614394, “Novel pleuromutilin derivatives conjugated with phenyl-sulfide and boron-containing moieties as potent antibacterial agents against antibiotic-resistant bacteria” (Eur J Med Chem, 2024)
